Values after ≈ are worked out from the molar mass of the structure shown.
Experiments:
Bibionidae = conditions: chronic/long-term; duration: 28 days; other
Typhlodromus pyri [1] = conditions: chronic/long-term; reproduction
Apis mellifera = conditions: acute, mortality
Tagia sp. = conditions: chronic/long-term; duration: 56 days; reproduction
Daphnia magna = conditions: chronic/long-term; duration: 21 days; other
Colinus virginianus = conditions: for LD50: acute, oral, mortality
Typhlodromus pyri [2] = experiment: LR50; higher = less toxic; conditions: acute; mortality

**Q.** Which NOEC (Bibionidae) does the source give for C#CCOC(=O)[C@@H](C)Oc1ccc(Oc2ncc(Cl)cc2F)cc1 [Clodinafop-propargyl] here?
**A.** The NOEC was 1.2 mg/L.

**Q.** What about the NOEC (Typhlodromus pyri [1]) of the same molecule?
**A.** The NOEC was 90 g/ha.

**Q.** And the LD50 (Apis mellifera; dermal)?
**A.** Its LD50 is over 271 µg/piece.

**Q.** What about the LD50 (Apis mellifera; oral, unspecified) of the same molecule?
**A.** The LD50 was over 104 µg/piece.

**Q.** And the NOEC (Tagia sp.)?
**A.** Its NOEC is 5 mg/kg.

**Q.** And the NOEC (Daphnia magna)?
**A.** Its NOEC is 0.23 mg/L.

**Q.** What about the LC50 (Lepomis macrochirus; acute, duration: 96 hours, mortality) of the same molecule?
**A.** The LC50 was 0.21 µg/mL (≈ 0.6 µM).

**Q.** And the NOEC (Lepomis macrochirus; chronic/long-term, duration: 33 days, other)?
**A.** Its NOEC is 0.024 mg/L.

**Q.** What about the LD50 (Rattus norvegicus; acute, oral, mortality) of the same molecule?
**A.** The LD50 was over 1390 mg/kg-day.

**Q.** And the NOAEL (Rattus norvegicus; chronic, duration: 2 years, clinical chemistry)?
**A.** Its NOAEL is 0.03 mg/kg-day.

**Q.** And the NOAEL (Rattus norvegicus; developmental, development)?
**A.** The NOAEL was 5 mg/kg-day.

**Q.** And the NOAEL (Rattus norvegicus; reproduction developmental, body weight)?
**A.** The NOAEL was 3.4 mg/kg-day.

**Q.** What about the LD50 (Colinus virginianus; duration: 5 days, diet) of the same molecule?
**A.** Its LD50 is over 1040 mg/kg-day.

**Q.** What about the LD50 (Colinus virginianus) of the same molecule?
**A.** Its LD50 is 1460 mg/kg-day.

**Q.** What about the NOEC (Colinus virginianus; reproduction developmental) of the same molecule?
**A.** Its NOEC is 48.9 mg/kg-day.

**Q.** And the LR50 (Typhlodromus pyri [2])?
**A.** Its LR50 is over 90 g/ha.
